Reference: ChEMBL document CHEMBL1134231, “Peptidomimetic inhibitors of protein farnesyltransferase show potent antimalarial activity” (Bioorg Med Chem Lett, 2001)
pIC50: −log10 of the molar value. ≈ marks a conversion by molar mass, not a printed value.

Columns and labels:
[1] = target: Protein farnesyltransferase (Mus musculus, UniProt Q61239+Q8K2I1); assay: Inhibition of mammalian H-Ras processing in NIH 3T3 cells; type: functional, cell-based, NIH3T3
Plasmodium falciparum [2] = assay: Growth inhibition of Plasmodium falciparum 3D7 infected red blood cells; type: functional; settings: read-out: ED50 (the source's name)
[3] = target: Protein farnesyltransferase (Homo sapiens, UniProt P49354+P49356); assay: Inhibition of mammalian Farnesyltransferase; type: protein-complex assay
Plasmodium falciparum [4] = assay: Percent growth inhibition of Plasmodium falciparum 3D7 in erythrocytes at 20 uM; type: functional
Plasmodium falciparum [5] = assay: Inhibition of Plasmodium falciparum 3D7 infected red blood cells; type: functional; settings: read-out: ED50 (the source's name)

SMILES | pIC50 [1] | pIC50 [3] | EC50 (Plasmodium falciparum [5]) | EC50 (Plasmodium falciparum [2]) | inhibition at 20 µM (Plasmodium falciparum [4])
CSCC[C@H](NC(=O)c1ccc(NCc2cncn2Cc2ccc(-c3ccccc3)cc2)cc1-c1ccccc1)C(=O)O | < 4.00 | 6.59 |  | 5 µg/mL (≈ 8.46 µM) | 89.1%
CSCC[C@H](NC(=O)c1ccc(NCc2cn(Cc3cccc4ccccc34)cn2)cc1-c1ccccc1)C(=O)O | < 4.00 | 5.52 |  | 10 µg/mL (≈ 17.7 µM) | 19.4%
COC(=O)[C@H](CCSC)NC(=O)c1ccc(CNCc2c[nH]cn2)cc1-c1ccccc1C | 7.70 | 4.47 |  | 2 µg/mL (≈ 4.29 µM) | 99%
CSCC[C@H](NC(=O)c1ccc(CNCc2c[nH]cn2)cc1-c1ccccc1C)C(=O)O | 6.70 | 9.00 |  | > 30 µg/mL | 0%
CSCC[C@H](NC(=O)c1ccc(NC[C@@H](N)CS)cc1-c1ccccc1)C(=O)O |  |  | > 30 µg/mL |  | 
CSCC[C@H](NC(=O)c1ccc(NCc2cn(CC3CCCCC3)cn2)cc1-c1ccccc1)C(=O)O |  | 6.11 |  | > 30 µg/mL | 
CSCC[C@H](NC(=O)c1ccc(NCc2cn(Cc3ccc(-c4ccccc4)cc3)cn2)cc1-c1ccccc1)C(=O)O | < 4.00 | 5.22 |  | 12 µg/mL (≈ 20.3 µM) | 

Further lines, with some results ahead:

pIC50 [1] | pIC50 [3] | EC50 (Plasmodium falciparum [5]) | SMILES | EC50 (Plasmodium falciparum [2]) | inhibition at 20 µM (Plasmodium falciparum [4])
< 4.00 | 5.51 |  | N#Cc1ccc(Cn2cncc2CNc2ccc(C(=O)NCC3CCCCC3)c(-c3ccccc3)c2)cc1 | 3 µg/mL (≈ 5.96 µM) | 
 | 6.19 |  | N#Cc1ccc(Cn2cncc2CNc2ccc(C(=O)NCc3ccccc3)c(-c3ccccc3)c2)cc1 | 4 µg/mL (≈ 8.04 µM) | 
5.30 | 8.14 |  | CSCC[C@H](NC(=O)c1ccc(NCc2cncn2Cc2ccc(C#N)cc2)cc1-c1ccccc1)C(=O)O | 13 µg/mL (≈ 24.1 µM) | 86.3%
< 4.00 | 6.42 |  | CC(C)NC(=O)c1ccc(NCc2cncn2Cc2ccc(C#N)cc2)cc1-c1ccccc1 | 3 µg/mL (≈ 6.67 µM) | 
 | 7.39 |  | CSCC[C@H](NC(=O)c1ccc(NCc2cncn2CC2CCCCC2)cc1-c1ccccc1)C(=O)O | 10 µg/mL (≈ 19.2 µM) | 72%
 | 6.66 |  | N#CCCNC(=O)c1ccc(NCc2cncn2Cc2ccc(C#N)cc2)cc1-c1ccccc1 | 10 µg/mL (≈ 21.7 µM) | 
